Measurements reported in patent US11312721B2 (priority 2015, dated 2022).
“Also recorded” adds a separate entry of the source. Where two headings read alike, the source gives them in different places.

How the values were obtained:
aged-impaired (AI) rats [1] = experiment: Morris water maze behavioral task; assay type: in vivo, rat; conditions: 100 μg ICV
Experimental: The effects of 6,6 dimethyl-3-(3-hydroxypropyl)thio-1-(thiazol-2-yl)-6,7-dihydro-2-benzothiophen-4(5H)-one on the in vivo spatial memory retention of aged-impaired (AI) rats were assessed in a Morris water maze behavioral task. A water maze is a pool surrounded with a novel set of patterns relative to the maze.
Cognitively impaired aged rats were implanted unilaterally with a cannula into the lateral ventricle. Stereotaxic coordinates were 1.0 mm posterior to bregma, 1.5 mm lateral to midline, and 3.5 mm ventral to the skull surface. After about a week of recovery, the rats were pre-trained in a water maze for 2 days (6 trials per day) to locate a submerged escape platform hidden underneath the surface of the pool, in which the escape platform location varied from day to day. No intracerebroventricular (ICV) infusion was given during pre-training.
After pre-training, rats received ICV infusion of either 100 μg 6,6 dimethyl-3-(3-hydroxypropyl)thio-1-(thiazol-2-yl)-6,7-dihydro-2-benzothiophen-4(5H)-one (n=6) in 5 μl DMSO or vehicle DMSO (n=5) 40 min prior to water maze training and testing. Training consisted of 8 trials per day for 2 days where the hidden escape platform remained in the same location. Rats were given 60 seconds to locate the platform with a 60 seconds inter-trial interval. The rats were given a probe test (120 seconds) 24 hr. after the end of training where the escape platform was removed. During the training, there were 4 blocks, where each block had 4 training trials.
During a test trial 24 hr. after training, the escape platform was removed. The search/swim pattern of the rats was used to measure whether the rats remember where the escape platform was located during pre-trial training in order to test for the long-term memory of the rats. In this trial, “target annulus” is a designated area 1.5 times the size of the escape platform around the area where the platform was located during pre-trial training. “Opposite annulus” is a control area of the same size as the size of the target annulus, which is located opposite to the target annulus in the pool. If the rats had good long term memory, they would tend to search in the area surrounding the location where the platform was during the pre-trial training (i.e., the “target” annulus; and not the “opposite” annulus). “Time in annulus” is the amount of time in seconds that the rat spent in the target or opposite annulus area. “Number (#) of crossings” in annulus is the number of times the rat swam across the target or opposite annulus area.

aged-impaired (AI) rats [2] = experiment: Radial Arm Maze (RAM) behavioral task, spatial memory retention; assay type: in vivo, rat
Experimental: The effects of methyl 3,5-diphenylpyridazine-4-carboxylate on the in vivo spatial memory retention of aged-impaired (AI) rats were assessed in a Radial Arm Maze (RAM) behavioral task using vehicle control and four different dosage levels of methyl 3,5-diphenylpyridazine-4-carboxylate ([…]). RAM behavioral tasks were performed on eight AI rats. All five treatment conditions (vehicle and four dosage levels) were tested on all eight rats.
The RAM apparatus used consisted of eight equidistantly-spaced arms. An elevated maze arm (7 cm width×75 cm length) projected from each facet of an octagonal center platform (30 cm diameter, 51.5 cm height). Clear side walls on the arms were 10 cm high and were angled at […] to form a trough. A food well (4 cm diameter, 2 cm deep) was located at the distal end of each arm. Froot Loops™ (Kellogg Company) were used as rewards. Blocks constructed of Plexiglas™ (30 cm height×12 cm width) could be positioned to prevent entry to any arm. Numerous extra maze cues surrounding the apparatus were also provided.
The AI rats were initially subjected to a pre-training test (Chappell et al. Neuropharmacology 37: 481-487, 1998). The pre-training test consisted of a habituation phase (4 days), a training phase on the standard win-shift task (18 days) and another training phase (14 days) in which a brief delay was imposed between presentation of a subset of arms designated by the experimenter (e.g., 5 arms available and 3 arms blocked) and completion of the eight-arm win-shift task (i.e., with all eight arms available).
In the habituation phase, rats were familiarized to the maze for an 8-minute session on four consecutive days. In each of these sessions, food rewards were scattered on the RAM, initially on the center platform and arms and then progressively confined to the arms. After this habituation phase, a standard training protocol was used, in which a food pellet was located at the end of each arm. Rats received one trial each day for 18 days. Each daily trial terminated when all eight food pellets had been obtained or when either 16 choices were made or 15 minutes had elapsed. After completion of this training phase, a second training phase was carried out in which the memory demand was increased by imposing a brief delay during the trial. At the beginning of each trial, three arms of the eight-arm maze were blocked. Rats were allowed to obtain food on the five arms to which access was permitted during this initial “information phase” of the trial. Rats were then removed from the maze for 60 seconds, during which time the barriers on the maze were removed, thus allowing access to all eight arms. Rats were then placed back onto the center platform and allowed to obtain the remaining food rewards during this “retention test” phase of the trial. […]

α5-containing GABAA R = α5-containing GABAA R (Homo sapiens, UniProt P18507+P31644); conditions: (EC20); cited from earlier work
GABAA α5 receptor = target: T1, GABAA α5 receptor (Rattus norvegicus, UniProt P19969); experiment: GABAA α5 receptor occupancy in vivo with Ro 15-4513 tracer; parameters: species or system Long Evans rats; conditions: for effect on Ro 15-4513 binding in hippocampus and cerebellum: 0.01-10 mg/kg
T1 construct: from tissue
From the text: (§1) Food and water were available ad libitum.

[3] = assay type: in vivo, Long Evans rats; conditions: i.v.
Experimental: as §1
For plasma exposures, blood samples were centrifuged at 14000 rpm for 16 minutes. After centrifuging, 50 ul of supernatant (plasma) from each sample was added to 200 μl of acetonitrile plus 0.1% formic acid. […] Samples were sonicated for 5 minutes in an ultrasonic water bath, followed by centrifugation for 30 minutes, at 16000 RPM. 100 ul of supernatant was removed from each sample vial and placed in a new glass auto sample vial, followed by the addition of 300 μl of sterile water (pH 6.5).
Additional studies were conducted in aged Long-Evans rats in order to determine the exposures at the behaviorally relevant doses in the cognition studies. Exposure in young Long-Evans rats was also determined to bridge with the receptor occupancy studies that were conducted in young Long-Evans rats. Exposures in young and aged Long-Evans rats were relatively similar (Table 4, FIG. 4).

MAM-treated rats = conditions: cited from earlier work
[4] = probe test 24 hr. after training

T1 sequence (P19969 32-464 limits assumed): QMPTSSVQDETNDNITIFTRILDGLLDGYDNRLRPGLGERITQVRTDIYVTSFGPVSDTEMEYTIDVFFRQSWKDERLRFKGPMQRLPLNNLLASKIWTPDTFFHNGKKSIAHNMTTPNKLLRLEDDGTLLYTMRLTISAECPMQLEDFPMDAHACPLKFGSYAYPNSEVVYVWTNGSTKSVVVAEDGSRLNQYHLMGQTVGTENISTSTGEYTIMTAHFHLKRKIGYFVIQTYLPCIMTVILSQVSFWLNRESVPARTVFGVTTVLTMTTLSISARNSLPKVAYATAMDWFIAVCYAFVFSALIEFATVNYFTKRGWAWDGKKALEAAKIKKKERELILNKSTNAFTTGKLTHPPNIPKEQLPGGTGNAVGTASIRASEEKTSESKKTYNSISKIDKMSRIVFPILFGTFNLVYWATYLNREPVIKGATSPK
α5-containing GABAA R, sequence (P31644 32-462): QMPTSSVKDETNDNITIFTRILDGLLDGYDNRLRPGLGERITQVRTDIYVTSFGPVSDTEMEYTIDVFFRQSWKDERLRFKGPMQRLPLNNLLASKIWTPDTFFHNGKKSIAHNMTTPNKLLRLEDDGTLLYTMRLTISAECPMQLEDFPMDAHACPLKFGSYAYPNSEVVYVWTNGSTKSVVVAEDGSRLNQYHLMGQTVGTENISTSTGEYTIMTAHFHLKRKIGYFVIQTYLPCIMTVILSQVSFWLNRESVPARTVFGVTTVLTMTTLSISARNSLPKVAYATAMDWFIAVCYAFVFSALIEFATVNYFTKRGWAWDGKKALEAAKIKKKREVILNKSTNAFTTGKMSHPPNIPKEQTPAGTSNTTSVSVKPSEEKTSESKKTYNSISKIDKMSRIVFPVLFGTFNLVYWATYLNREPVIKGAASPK
α5-containing GABAA R, sequence (P28472 26-473 partner): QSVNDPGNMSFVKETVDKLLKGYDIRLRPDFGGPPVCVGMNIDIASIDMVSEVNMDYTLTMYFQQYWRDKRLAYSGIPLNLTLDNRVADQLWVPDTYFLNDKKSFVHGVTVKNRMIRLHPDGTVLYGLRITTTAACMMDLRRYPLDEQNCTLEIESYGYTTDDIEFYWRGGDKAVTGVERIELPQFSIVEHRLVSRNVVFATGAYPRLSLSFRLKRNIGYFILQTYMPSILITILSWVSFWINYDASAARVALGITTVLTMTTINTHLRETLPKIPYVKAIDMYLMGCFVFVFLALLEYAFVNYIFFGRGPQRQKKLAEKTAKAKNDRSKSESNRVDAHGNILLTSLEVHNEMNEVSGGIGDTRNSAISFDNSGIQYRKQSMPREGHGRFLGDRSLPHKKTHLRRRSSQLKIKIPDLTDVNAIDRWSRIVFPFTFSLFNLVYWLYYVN
α5-containing GABAA R, sequence (P18507 40-475): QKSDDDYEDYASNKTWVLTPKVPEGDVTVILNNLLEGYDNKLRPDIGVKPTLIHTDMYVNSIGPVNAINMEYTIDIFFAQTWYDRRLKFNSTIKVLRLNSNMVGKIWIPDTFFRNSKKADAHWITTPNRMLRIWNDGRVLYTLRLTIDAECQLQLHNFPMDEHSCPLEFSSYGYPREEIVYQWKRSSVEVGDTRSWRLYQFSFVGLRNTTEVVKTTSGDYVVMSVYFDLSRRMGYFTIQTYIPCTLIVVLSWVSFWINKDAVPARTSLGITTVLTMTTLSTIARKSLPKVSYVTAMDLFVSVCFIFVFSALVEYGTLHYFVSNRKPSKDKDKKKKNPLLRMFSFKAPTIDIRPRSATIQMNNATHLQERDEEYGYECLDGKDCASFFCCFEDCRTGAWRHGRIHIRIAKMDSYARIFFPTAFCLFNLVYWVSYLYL

## CC1(C)CC(=O)c2c(SCCCO)sc(-c3nccs3)c2C1 [6,6 dimethyl-3-(3-hydroxypropyl)thio-1-(thiazol-2-yl)-6,7-dihydro-2-benzothiophen-4(5H)-one]
aged-impaired (AI) rats [1]; block 1 (beginning of training)
  time to find the escape platform: about 24 seconds
aged-impaired (AI) rats [1]; block 4 (end of training)
  time to find the escape platform: about 9.6 seconds
aged-impaired (AI) rats [1]; [4]
  number of crossings of target annulus compared with opposite annulus: crossed the “target annulus” more often
  time in target annulus compared with opposite annulus: spent significantly more time in the target annulus

## COC(=O)c1c(-c2ccccc2)cnnc1-c1ccccc1 [Methyl 3,5-diphenylpyridazine-4-carboxylate]
aged-impaired (AI) rats [2]; 3 mg/kg ip, two-hour delay RAM, AI rats
  average no. of errors ± SEM in retention test: 1.31±0.40
aged-impaired (AI) rats [2]; 3 mg/kg ip, two-hour delay RAM, t(7)=4.233, p=0.004
  memory performance relative to vehicle control: significantly improved memory performance
α5-containing GABAA R
  α5 in vitro efficacy: +27
GABAA α5 receptor; i.v.
  effect on Ro 15-4513 binding in hippocampus and cerebellum: dose-dependently reduced Ro 15-4513 binding in hippocampus, without affecting cerebellum levels of Ro 15-4513; also recorded: blocked the binding of Ro154513 in the hippocampus but did not affect binding of Ro15413 in the cerebellum
GABAA α5 receptor; from exposure in aged rats at 3 mg/kg, i.p.
  RO required for cognitive efficacy in this model: 30-40%
GABAA α5 receptor; hippocampus, exposures behaviorally active in aged-impaired rats
  GABAA α5 receptors occupied at behaviorally active exposures: about 32%
GABAA α5 receptor; i.v., hippocampus/cerebellum ratio method
  ED50 of receptor occupancy, ratio method: 1.8 mg/kg
GABAA α5 receptor; rat, iv, 1 mg/kg, i.v., depending on method used to determine RO, read-out: receptor occupancy at an exposure of 180 ng/g in hippocampus
  receptor occupancy at 1 mg/kg: 32 to 39%
GABAA α5 receptor; rat, iv, 10 mg/kg
  receptor occupancy at 10 mg/kg: > 90%
GABAA α5 receptor; rat, iv, read-out: ED50 of receptor occupancy, using L-755,608 to define occupancy
  ED50: 1.1 mg/kg
[3]; dose from 0.1 to 1 mg/kg
  fold increase in hippocampal exposure: 12 fold
[3]; dose from 1 to 10 mg/kg
  fold increase in hippocampal exposure: ~5 fold
  fold increase in plasma exposure: 12 fold

## C#Cc1ccc2c(c1)C(c1ccccc1F)=N[C@H](C)c1c(C(=O)OCC)ncn1-2 [SH-053-2′F—R—CH3]
MAM-treated rats; MAM rats, systemic or infused into the ventral HPC
  number of spontaneously active DA neurons in the VTA: reduces the number of spontaneously active DA neurons in the ventral tegmental area (VTA) of MAM rats to levels observed in saline-treated rats
MAM-treated rats; MAM-treated rats
  locomotor response to amphetamine: is reduced
MAM-treated rats; saline-treated and MAM-treated animals
  cortical-evoked responses of HPC neurons: diminished cortical-evoked responses

## CCOC(=O)c1ncn2c1Cn1c(C)nnc1-c1cc(OC)ccc1-2 [ethyl 3-methoxy-7-methyl-9H-benzo[f]imidazo[1,5-a][1,2,4]tri]
aged-impaired (AI) rats [2]; 3 mg/kg, four-hour delay RAM, t(7)=4.13, p=0.004, or t(7)=3.08, p=0.018
  memory performance relative to vehicle control: significantly improved memory performance
aged-impaired (AI) rats [2]; 10 mg/kg, four-hour delay RAM, t(7)=2.82, p=0.026
  memory performance relative to vehicle control: significantly improved memory performance
GABAA α5 receptor; i.v.
  effect on Ro 15-4513 binding in hippocampus and cerebellum: reduced Ro 15-4513 binding in hippocampus, without affecting cerebellum levels of Ro 15-4513
GABAA α5 receptor; 10 mg/kg, i.v.
  GABAA α5 receptor occupancy: > 90%
